Calls of active or inactive are those of the source. The calls are words filed in the database; no cut-off is given here.
Assays:
[1] = molecular target: T1, Connector enhancer of kinase suppressor of ras 1 (Homo sapiens, UniProt Q969H4); assay: Binding affinity to CNKSR1 PH-domain (unknown origin) by SPR spectroscopy
T1 sequence (Q969H4 whole entry): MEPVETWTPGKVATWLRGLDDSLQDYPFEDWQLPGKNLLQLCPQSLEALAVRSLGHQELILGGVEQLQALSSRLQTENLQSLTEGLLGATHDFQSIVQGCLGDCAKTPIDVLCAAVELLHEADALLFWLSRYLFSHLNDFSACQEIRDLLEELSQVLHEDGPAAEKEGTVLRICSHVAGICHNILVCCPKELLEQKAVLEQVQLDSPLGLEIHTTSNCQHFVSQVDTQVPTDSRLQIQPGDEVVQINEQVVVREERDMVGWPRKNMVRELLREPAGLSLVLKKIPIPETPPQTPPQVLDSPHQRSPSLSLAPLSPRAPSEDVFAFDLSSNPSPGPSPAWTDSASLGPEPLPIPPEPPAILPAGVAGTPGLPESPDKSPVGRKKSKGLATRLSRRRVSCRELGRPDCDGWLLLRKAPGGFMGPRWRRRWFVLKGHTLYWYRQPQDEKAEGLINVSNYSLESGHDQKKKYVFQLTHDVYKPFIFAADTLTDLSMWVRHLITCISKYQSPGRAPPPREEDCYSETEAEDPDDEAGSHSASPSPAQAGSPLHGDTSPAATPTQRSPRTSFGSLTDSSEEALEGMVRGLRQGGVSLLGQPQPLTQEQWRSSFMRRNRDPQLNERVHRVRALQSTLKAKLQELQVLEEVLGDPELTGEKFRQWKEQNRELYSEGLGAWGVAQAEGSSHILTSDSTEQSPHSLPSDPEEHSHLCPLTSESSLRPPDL

[2] = molecular target: RAC-alpha serine/threonine-protein kinase (Homo sapiens, UniProt P31749); assay: Binding affinity to AKT PH-domain (unknown origin) at 0.01 to 50 uM by SPR spectroscopy
[3] = Terminal half life in iv dosed mouse; type: ADME, organism-based; conditions: in vivo, read-out: beta t1/2
HCC95 = assay: Growth inhibition of human HCC95 cells incubated for 3 days; type: functional, cell-based; conditions: HCC95, 72 h
[4] = Growth inhibition of human […] cells incubated for 3 days; type: functional; conditions: 72 h
NCI-H2122 [5] = assay: Growth inhibition of human NCI-H2122 cells incubated for 3 days; type: functional, cell-based; conditions: NCI-H2122, 72 h
HCC515 [6] = assay: Growth inhibition of human HCC515 cells incubated for 3 days; type: functional, cell-based; conditions: HCC515, 72 h
[7] = molecular target: T2, Connector enhancer of kinase suppressor of ras 1 (Homo sapiens) (UniProt Q969H4); assay: Inhibition of CNKSR1 (unknown origin) assessed as reduction in inhibition of KRas signaling effectors by measuring p-AKT levels at 20 uM by cell based assay
T2 sequence (whole entry): T1 sequence (Q969H4 whole entry)

[8] = molecular target: T2, Connector enhancer of kinase suppressor of ras 1 (Homo sapiens); assay: Inhibition of CNKSR1 (unknown origin) assessed as reduction in inhibition of KRas signaling effectors by measuring p-MAPK levels at 20 uM by cell based assay
[9] = molecular target: T2, Connector enhancer of kinase suppressor of ras 1 (Homo sapiens); assay: Inhibition of CNKSR1 (unknown origin) assessed as reduction in inhibition of KRas signaling effectors by measuring GTP-RalA levels at 20 uM by cell based assay
A549 [10] = assay: Antitumor activity against human A549 cells xenografted in nu/nu mouse assessed as reduction in tumor volume at 200 mg/kg, ip dosed daily for 8 days; type: functional, organism-based
Pleckstrin = molecular target: T3, Pleckstrin (Homo sapiens, UniProt P08567); assay: Binding affinity to PLEK PH-domain (unknown origin) at 0.01 to 50 uM by SPR spectroscopy
T3 sequence (P08567 whole entry): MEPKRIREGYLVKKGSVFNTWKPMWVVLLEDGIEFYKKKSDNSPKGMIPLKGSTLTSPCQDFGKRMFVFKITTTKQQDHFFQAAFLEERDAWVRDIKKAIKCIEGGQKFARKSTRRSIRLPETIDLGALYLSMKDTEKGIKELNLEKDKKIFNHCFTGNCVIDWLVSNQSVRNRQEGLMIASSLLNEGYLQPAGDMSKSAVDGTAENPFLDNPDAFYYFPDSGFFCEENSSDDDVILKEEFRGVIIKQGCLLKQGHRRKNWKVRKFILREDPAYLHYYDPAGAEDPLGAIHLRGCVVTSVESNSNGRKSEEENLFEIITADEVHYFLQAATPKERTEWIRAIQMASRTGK

[11] = molecular target: T2, Connector enhancer of kinase suppressor of ras 1 (Homo sapiens); assay: Inhibition of GFP-tagged CNKSR1 (unknown origin) expressed in HEK293T cells assessed as blocking of membrane colocalization of CNKSR1 and mutant-KRas at plasma membrane at 50 uM incubated for 4 hrs by confocal imaging assay; type: cell-based
[12] = molecular target: T2, Connector enhancer of kinase suppressor of ras 1 (Homo sapiens); assay: Inhibition of GFP-tagged CNKSR1 (unknown origin) expressed in HEK293T cells assessed as reduction in total mutant-KRas protein at 50 uM incubated for 4 hrs by confocal imaging assay; type: cell-based
[13] = molecular target: T2, Connector enhancer of kinase suppressor of ras 1 (Homo sapiens); assay: Inhibition of GFP-tagged CNKSR1 (unknown origin) expressed in HEK293T cells assessed as inhibition of direct binding of CNKSR1 to mut-KRAS at 50 uM incubated for 4 hrs by fluorescence lifetime imaging microscopy; type: cell-based
A549 [14] = assay: Antitumor activity against human A549 cells xenografted in nu/nu mouse assessed as reduction in tumor volume at 200 mg/kg, ip dosed daily for 8 days co-treated with 75 mg/kg, po erlotinib; type: functional, organism-based
HCC515 [15] = assay: Growth inhibition of human HCC515 cells relative to control; type: functional, cell-based
NCI-H2122 [16] = assay: Growth inhibition of human NCI-H2122 cells relative to control; type: functional, cell-based
A549 [17] = assay: Growth inhibition of human A549 cells relative to control; type: functional, cell-based
NCI-H1373 = assay: Growth inhibition of human NCI-H1373 cells relative to control; type: functional, cell-based
[18] = molecular target: T4, 3-phosphoinositide-dependent protein kinase 1 (Homo sapiens) (UniProt O15530); assay: Binding affinity to PDPK1 PH-domain (unknown origin) at 0.01 to 50 uM by SPR spectroscopy
T4 sequence (whole entry): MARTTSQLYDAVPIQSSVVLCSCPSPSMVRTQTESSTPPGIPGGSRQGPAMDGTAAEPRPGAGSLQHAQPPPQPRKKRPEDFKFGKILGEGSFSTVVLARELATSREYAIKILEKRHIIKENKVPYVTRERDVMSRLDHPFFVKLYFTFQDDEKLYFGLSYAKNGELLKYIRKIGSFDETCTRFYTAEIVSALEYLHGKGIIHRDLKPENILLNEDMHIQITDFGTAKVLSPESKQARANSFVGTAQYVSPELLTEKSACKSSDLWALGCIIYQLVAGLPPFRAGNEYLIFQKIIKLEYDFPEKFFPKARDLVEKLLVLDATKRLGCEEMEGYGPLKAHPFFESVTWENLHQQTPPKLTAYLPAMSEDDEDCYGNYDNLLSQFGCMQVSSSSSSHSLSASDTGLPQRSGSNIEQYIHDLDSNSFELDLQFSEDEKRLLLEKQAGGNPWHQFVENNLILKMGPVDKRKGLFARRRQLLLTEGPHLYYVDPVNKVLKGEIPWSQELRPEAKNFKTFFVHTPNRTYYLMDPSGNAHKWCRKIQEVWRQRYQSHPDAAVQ

[19] = molecular target: Rho guanine nucleotide exchange factor TIAM1 (Homo sapiens) (UniProt Q13009); assay: Binding affinity to TIAM1 PH-domain (unknown origin) at 0.01 to 50 uM by SPR spectroscopy
Homo sapiens [20] = species on record: Homo sapiens; assay: Selectivity index, ratio of binding affinity to AKT PH-domain (unknown origin) by SPR spectroscopy to binding affinity to CNKSR1 PH-domain (unknown origin) by SPR spectroscopy
Homo sapiens [21] = species on record: Homo sapiens; assay: Selectivity index, ratio of binding affinity to PDPK1 PH-domain (unknown origin) by SPR spectroscopy to binding affinity to CNKSR1 PH-domain (unknown origin) by SPR spectroscopy
Homo sapiens [22] = species on record: Homo sapiens; assay: Selectivity index, ratio of binding affinity to TIAM1 PH-domain (unknown origin) by SPR spectroscopy to binding affinity to CNKSR1 PH-domain (unknown origin) by SPR spectroscopy
[23] = Cmax in C57BL6 mouse plasma at 250 mg/kg, po dosed via gavage as single administration; type: ADME, organism-based; set-up: dose 250 mg/kg, route oral
[24] = Half life in C57BL6 mouse at 250 mg/kg, po dosed via gavage as single administration; type: ADME, organism-based; conditions: in vivo

RAC-alpha serine/threonine-protein kinase, sequence (P31749 whole entry): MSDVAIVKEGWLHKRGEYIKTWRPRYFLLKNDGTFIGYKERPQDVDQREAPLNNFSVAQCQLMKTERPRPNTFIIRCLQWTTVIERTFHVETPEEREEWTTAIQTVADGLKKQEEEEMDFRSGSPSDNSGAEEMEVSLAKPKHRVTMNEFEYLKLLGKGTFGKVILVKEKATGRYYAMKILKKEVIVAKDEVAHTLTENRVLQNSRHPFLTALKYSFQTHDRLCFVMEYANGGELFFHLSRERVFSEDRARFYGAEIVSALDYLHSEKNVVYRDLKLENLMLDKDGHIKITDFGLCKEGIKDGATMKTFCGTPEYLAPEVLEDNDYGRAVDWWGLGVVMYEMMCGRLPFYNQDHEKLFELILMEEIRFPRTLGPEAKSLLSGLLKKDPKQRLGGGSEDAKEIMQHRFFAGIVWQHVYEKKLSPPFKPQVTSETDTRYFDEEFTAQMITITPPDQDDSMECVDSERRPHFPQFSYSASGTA
Rho guanine nucleotide exchange factor TIAM1 (Homo sapiens), sequence (Q13009 whole entry): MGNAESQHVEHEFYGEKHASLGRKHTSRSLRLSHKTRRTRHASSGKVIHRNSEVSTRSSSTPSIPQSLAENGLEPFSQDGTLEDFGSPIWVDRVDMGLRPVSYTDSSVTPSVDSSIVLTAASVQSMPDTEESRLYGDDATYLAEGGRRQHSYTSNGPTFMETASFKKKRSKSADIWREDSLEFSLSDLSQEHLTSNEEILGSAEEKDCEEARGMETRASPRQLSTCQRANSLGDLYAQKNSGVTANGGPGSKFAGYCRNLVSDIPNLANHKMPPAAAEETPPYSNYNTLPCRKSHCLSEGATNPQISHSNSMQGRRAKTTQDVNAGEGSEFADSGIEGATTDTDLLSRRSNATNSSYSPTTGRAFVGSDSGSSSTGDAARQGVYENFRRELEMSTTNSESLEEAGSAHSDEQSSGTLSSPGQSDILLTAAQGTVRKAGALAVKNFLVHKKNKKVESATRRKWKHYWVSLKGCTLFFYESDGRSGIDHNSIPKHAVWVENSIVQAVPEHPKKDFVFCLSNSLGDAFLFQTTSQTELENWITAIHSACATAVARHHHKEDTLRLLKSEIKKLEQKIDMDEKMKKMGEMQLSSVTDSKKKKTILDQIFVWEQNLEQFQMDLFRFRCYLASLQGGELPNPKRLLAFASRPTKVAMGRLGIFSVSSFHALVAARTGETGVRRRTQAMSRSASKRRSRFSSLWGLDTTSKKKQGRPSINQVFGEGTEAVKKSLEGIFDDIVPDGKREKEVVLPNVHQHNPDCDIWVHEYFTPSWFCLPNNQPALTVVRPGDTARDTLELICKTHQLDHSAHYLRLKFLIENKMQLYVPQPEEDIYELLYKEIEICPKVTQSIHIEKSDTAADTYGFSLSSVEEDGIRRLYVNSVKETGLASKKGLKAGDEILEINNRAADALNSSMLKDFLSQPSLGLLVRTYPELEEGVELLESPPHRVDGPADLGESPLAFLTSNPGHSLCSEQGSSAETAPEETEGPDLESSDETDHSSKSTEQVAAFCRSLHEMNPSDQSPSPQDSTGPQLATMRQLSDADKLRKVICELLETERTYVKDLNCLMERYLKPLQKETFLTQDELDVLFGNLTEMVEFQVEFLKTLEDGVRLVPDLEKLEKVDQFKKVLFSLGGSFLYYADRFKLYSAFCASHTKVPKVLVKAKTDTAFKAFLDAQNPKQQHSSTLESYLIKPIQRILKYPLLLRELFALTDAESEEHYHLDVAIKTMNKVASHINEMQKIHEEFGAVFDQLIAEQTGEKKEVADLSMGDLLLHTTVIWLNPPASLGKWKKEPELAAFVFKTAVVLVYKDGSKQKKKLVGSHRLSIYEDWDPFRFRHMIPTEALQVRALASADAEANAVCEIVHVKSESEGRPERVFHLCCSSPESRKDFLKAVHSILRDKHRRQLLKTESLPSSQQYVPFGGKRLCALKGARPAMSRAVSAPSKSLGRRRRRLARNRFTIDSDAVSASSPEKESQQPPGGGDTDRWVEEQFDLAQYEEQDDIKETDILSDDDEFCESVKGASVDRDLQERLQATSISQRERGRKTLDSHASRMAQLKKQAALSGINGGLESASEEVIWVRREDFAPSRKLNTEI

In the case of `COc1c(/C=C/C(=O)O)cc(NS(=O)(=O)c2cccs2)c2c1OCO2`, the Kd [1] is reported as “Not Active” and the Kd [2] is reported as “Not Active”.
In the case of `Cc1ccc(-c2csc(Cn3nc(CC(=O)N4CCN(C)CC4)c4ccccc4c3=O)n2)cc1`, the half-life [3] is reported as 5.45 h.
For `Cc1ccc(-c2csc(Cn3nc(CC=O)c4ccccc4c3=O)n2)cc1`, the half-life [3] was 0.583 h.
`Cc1ccc(-c2nc(SCC(=O)O)c3c(=O)n(C)c(=O)n(C)c3n2)cc1` gave a Kd ([1]; read-out: Kd) of 1.01 µM and a Kd ([2]; read-out: Kd) of 1.28 µM.
In the case of `O=C(O)CCc1ccc(-c2ccc(Br)cc2)n1CCC(=O)O`, the Kd ([1]; read-out: Kd) is reported as 0.000196 µM and the Activity [2] is reported as “Active”.
With `Cc1ccc(-c2csc(Cn3nc(Cc4nccs4)c4ccccc4c3=O)n2)cc1` the half-life [3] was 4.08 h, the IC50 (HCC95) was 46 µM and the IC50 [4] was 49 µM. The IC50 (NCI-H2122 [5]) was 26 µM, the IC50 (HCC515 [6]) was 28 µM and the inhibition [7] was “Active”. The inhibition [8] was “Active” and the inhibition [9] was “Active”.
With `CCNC(=O)Cc1nn(Cc2nc(-c3ccc(C)cc3)cs2)c(=O)c2ccccc12` the half-life [3] was 0.467 h and the TGI (A549 [10]) was “Active”.
In the case of `COc1ccc(OC)c(-c2cc(C(=O)O)c3nc(C)[nH]c3n2)c1`, the Activity [2] is reported as “Active”.
For `Cc1ccc(-c2csc(Cn3nc(CC4OCC(=O)O4)c4ccccc4c3=O)n2)cc1` (stereo not drawn), the IC50 (HCC95) was 40 µM, the IC50 [4] was 56 µM and the IC50 (NCI-H2122 [5]) was > 100 µM. For the same compound, the IC50 (HCC515 [6]) was 34 µM, the inhibition [7] was “Active” and the inhibition [8] was “Active”. For the same compound, the inhibition [9] was “Active”.
In the case of `Cc1c(Cl)ccc2c(C(=O)O)cc(-c3cccnc3)nc12`, the Activity [2] is reported as “Active”.
With `CCOC(=O)/C=C/c1cc(NS(=O)(=O)c2cccs2)c2c(c1O)OCO2` the Kd (Pleckstrin) was 261 µM.
Compound `Cc1ccc(-c2csc(Cn3nc(CC4OCCCO4)c4ccccc4c3=O)n2)cc1` has a half-life [3] of 4.33 h, an IC50 (HCC95) of 45 µM and an IC50 [4] of 38 µM. For the same compound, the IC50 (NCI-H2122 [5]) was > 100 µM, the IC50 (HCC515 [6]) was 37 µM and the inhibition [11] was “Active”. For the same compound, the inhibition [12] was “Active”, the inhibition [13] was “Active” and the inhibition [7] was “Active”. The inhibition [8] was “Active”, the inhibition [9] was “Active” and the TGI (A549 [10]) was “Active”. The TGI (A549 [14]) was “Active”.
For `O=C(O)COc1cc(OCC(=O)O)c2c3c(c(=O)oc2c1)CCCC3`, the Kd ([1]; read-out: Kd) was 1.13 µM and the Activity [2] was “Active”.
With `Nc1cccc(-c2cc(C(=O)O)c3cc(Cl)ccc3n2)c1` the Activity [2] was “Active”.
`CCOC(=O)/C=C/c1c(O)c(OC)cc(NS(=O)(=O)c2cccs2)c1SC` gave a Kd (Pleckstrin) of 300 µM.
In the case of `CC(=O)Nc1cccc(-n2nnc(SCC(=O)c3cc(-c4ccccc4)no3)n2)c1`, the “growth inhibition (GI)” value (HCC515 [15]) is reported as “Active”, the “growth inhibition (GI)” value (NCI-H2122 [16]) is reported as “Active” and the “growth inhibition (GI)” value (A549 [17]) is reported as “Active”. For the same compound, the “growth inhibition (GI)” value (NCI-H1373) was “Active”, the Activity [2] was “inactive” and the Activity [18] was “inactive”. For the same compound, the Activity [19] was “inactive”, the Ratio (Homo sapiens [20]) was 50 to 100 and the Ratio (Homo sapiens [21]) was 50 to 100. For the same compound, the Ratio (Homo sapiens [22]) was 50 to 100.
In the case of `O=C(O)c1ccc2c(c1)C1C=CCC1C(C(=O)O)N2` (stereo not drawn), the Kd ([1]; read-out: Kd) is reported as 5.34 µM and the Kd ([2]; read-out: Kd) is reported as 0.000474 µM.
For `O=C(O)CSc1cc(NS(=O)(=O)c2cccs2)c2ccccc2c1O`, the Kd ([1]; read-out: Kd) was 3.64 µM, the Activity [2] was “Active” and the IC50 (HCC95) was 13 µM. For the same compound, the IC50 [4] was 7 µM, the IC50 (NCI-H2122 [5]) was 34 µM and the IC50 (HCC515 [6]) was 11 µM.
With `Cc1ccc(-c2csc(Cn3nc(CC(=O)O)c4ccccc4c3=O)n2)cc1` the half-life [3] was 1.2 h, the Cmax [23] was 230 µM and the half-life [24] was 13 h. For the same compound, the IC50 (HCC95) was > 100 µM, the IC50 [4] was > 100 µM and the IC50 (NCI-H2122 [5]) was > 100 µM. For the same compound, the IC50 (HCC515 [6]) was > 100 µM, the inhibition [7] was “Active” and the inhibition [8] was “Active”. For the same compound, the inhibition [9] was “Active”.

Source: ChEMBL document CHEMBL4419164, “Methods and compositions for inhibiting cnksr1” (2018)
